The source of these data is ChEMBL document CHEMBL3576767, “Neo-clerodane diterpenoids from Scutellaria barbata with activity against Epstein-Barr virus lytic replication” (J Nat Prod, 2015).

A word on the inhibition: it is the change of the read-out against control, counted positive when it falls. One may read the EC50 as the concentration needed to bring the measured effect to its halfway point. By CC50 is commonly meant the concentration that lowers cell viability or growth by half.

For series [1], the system named is Human gammaherpesvirus 4. Put plainly: Antiviral activity against EBV infected in TPA and sodium butyrate-induced P3HR1 cells assessed as inhibition on EBV lytic replication at 20 uM incubated for 48 hrs by SYBR green dye based real-time PCR method. It counts as functional. Particulars: human gammaherpesvirus 4, P3HR-1, 48 h. In general terms: Quantitative PCR measures a nucleic acid by following its amplification.

Series [2] is described as follows: Selectivity index, ratio of CC50 for human P3HR1 cells to EC50 for EBV infected in TPA and sodium butyrate-induced P3HR1 cells. Details: species or system P3HR-1.
For series [3], the system named is Human gammaherpesvirus 4. Briefly: Antiviral activity against EBV infected in TPA and sodium butyrate-induced P3HR1 cells assessed as inhibition on EBV lytic replication incubated for 48 hrs by SYBR green dye based real-time PCR method. It counts as functional, organism-based. Particulars: human gammaherpesvirus 4, P3HR-1, 48 h.
Series [4] is described as follows: Cytotoxicity against human P3HR1 cells assessed as reduction in cell viability incubated for 48 hrs by trypan blue dye exclusion assay. Format: cell-based, P3HR-1.

A value given as a limit tells only on which side of the number the result lay.

With `CC(=O)O[C@@H](CC1=CC(=O)OC1)[C@]1(C)[C@H]2CCC=C(C)[C@]2(C)[C@@H](OC(=O)c2cccnc2)[C@H](OC(=O)c2ccccc2)[C@]1(C)O` [BARBATELLARINES B], in the series on Human gammaherpesvirus 4 [1], the inhibition at 20 µM was under 50%.

For the molecule `CC(=O)O[C@H]1[C@H](OC(=O)c2cccnc2)[C@@]2(C)C(C)=CCC[C@@H]2[C@@](C)(/C=C/C2=CC(=O)OC2)[C@@]1(C)O`, in the series with Human gammaherpesvirus 4 [1], the inhibition at 20 µM was under 50%.

With `CC(=O)O[C@H]1[C@H](OC(C)=O)[C@](C)(O)[C@](C)(/C=C/C2=CC(=O)OC2)[C@H]2CCC=C(C)[C@]12C`, the inhibition at 20 µM in the series on Human gammaherpesvirus 4 [1] is under 50%.

As to `CC(=O)O[C@@H](CC1=CC(=O)OC1)[C@]1(C)[C@H]2CCC=C(C)[C@]2(C)[C@@H](OC(=O)c2ccccc2)[C@H](O)[C@]1(C)O`, in series [2], the “Ratio CC50/EC50” value turned out to be 4.3. In the series with Human gammaherpesvirus 4 [1], the inhibition at 20 µM was over 50%. For the same molecule, in the series with Human gammaherpesvirus 4 [3], the EC50 was 8.7 µM. Also, the CC50 at 48 h in series [4] was 37.8 µM.

For the molecule `CC1=CCC[C@H]2[C@@]1(C)[C@@H](OC(=O)c1cccnc1)[C@H](OC(=O)c1cccnc1)[C@](C)(O)[C@]2(C)/C=C/C1=CC(=O)OC1`, the inhibition at 20 µM with Human gammaherpesvirus 4 [1] was under 50%.

In the case of `CC(=O)O[C@H]1[C@H](OC(=O)C(C)C)[C@](C)(O)[C@](C)(/C=C/C2=CC(=O)OC2)[C@H]2CCC=C(C)[C@]12C`, the inhibition at 20 µM in the series with Human gammaherpesvirus 4 [1] was under 50%.

Take `CC(=O)O[C@@H](CC1=CC(=O)OC1)[C@]1(C)[C@H]2CCC=C(C)[C@]2(C)[C@@H](OC(=O)c2cccnc2)[C@H](OC(=O)C(C)C)[C@]1(C)O`: in the series on Human gammaherpesvirus 4 [1], the inhibition at 20 µM is under 50%.

In the case of `CC(=O)O[C@H]1[C@H](OC(=O)c2cccnc2)[C@@]2(C)C(C)=CC[C@@H](OC(=O)c3cccnc3)[C@@H]2[C@@]2(C)CC[C@]3(COC(=O)C3)O[C@@]12C`, in series [2], the “Ratio CC50/EC50” value is recorded as 109.2. Moreover, in the series on Human gammaherpesvirus 4 [1], the inhibition at 20 µM was over 50%. Also, the EC50 in the series with Human gammaherpesvirus 4 [3] is 16.4 µM. In addition, the CC50 at 48 h in series [4] amounted to 1790 µM.

In the case of `C=C1[C@@H](O)CC[C@H]2[C@@]1(C)[C@@H](OC(=O)c1ccccc1)[C@H](OC(=O)c1ccccc1)[C@](C)(O)[C@]2(C)/C=C/C1=CC(=O)OC1`, the inhibition at 20 µM in the series on Human gammaherpesvirus 4 [1] was under 50%.

As to `CC(=O)O[C@H]1[C@H](OC(=O)c2cccnc2)[C@@]2(C)C(C)=CCC[C@@H]2[C@@]2(C)[C@@H](OC(=O)c3cccnc3)C[C@@]3(COC(=O)C3)O[C@@]12C`, the inhibition at 20 µM with Human gammaherpesvirus 4 [1] is under 50%.

Regarding `CC(=O)OC(C(=O)O[C@H]1[C@H](OC(=O)c2ccccc2)[C@@]2(C)C(C)=CCC[C@@H]2[C@@](C)(/C=C/C2=CC(=O)OC2)[C@@]1(C)O)C(C)C` (some centres not stated), in series [2], the “Ratio CC50/EC50” value came to 46.1. Moreover, in the series on Human gammaherpesvirus 4 [1], the inhibition at 20 µM was over 50%. The EC50 in the series on Human gammaherpesvirus 4 [3] turned out to be 3.2 µM. Further, in series [4], the half-maximal cytotoxic concentration (CC50) at 48 h was 148 µM.

Regarding `CC1=CCC[C@H]2[C@@]1(C)[C@@H](OC(=O)c1ccccc1)[C@H](OC(=O)c1cccnc1)[C@](C)(O)[C@]2(C)/C=C/C1=CC(=O)OC1`, the “Ratio CC50/EC50” value in series [2] worked out at 61.1. Further, the inhibition at 20 µM in the series with Human gammaherpesvirus 4 [1] was over 50%. Further, in the series with Human gammaherpesvirus 4 [3], the EC50 was 23.6 µM. For the same molecule, in series [4], the CC50 at 48 h was 1440 µM.

For the molecule `CC1=CCC[C@H]2[C@@]1(C)[C@@H](OC(=O)c1cccnc1)[C@H](OC(=O)c1cccnc1)[C@]1(C)O[C@]3(COC(=O)C3)C[C@H](OC(=O)c3cccnc3)[C@]21C`, in the series on Human gammaherpesvirus 4 [1], the inhibition at 20 µM was under 50%.

With `C=CC(C)(C)c1cc2cc3c(cc2oc1=O)O[C@H](C(C)(C)OC(C)=O)C3`, in series [2], the “Ratio CC50/EC50” value is listed as over 39.6. Also, the EC50 with Human gammaherpesvirus 4 [3] was 5.43 µM. Also, the CC50 at 48 h in series [4] was over 150 µM.

With `CC1=CCC[C@H]2[C@@]1(C)[C@@H](OC(=O)c1ccccc1)[C@H](O)[C@]1(C)O[C@]3(COC(=O)[C@@H]3O)C[C@H](OC(=O)c3ccccc3)[C@]21C`, the “Ratio CC50/EC50” value in series [2] worked out at 2.9. In addition, in the series with Human gammaherpesvirus 4 [1], the inhibition at 20 µM is over 50%. Moreover, the EC50 with Human gammaherpesvirus 4 [3] is 5.2 µM. In addition, the cytotoxic concentration (CC50) at 48 h in series [4] was 15.1 µM.

As for `CC(=O)O[C@@H](CC1=CC(=O)OC1)[C@]1(C)[C@H]2CCC=C(C)[C@]2(C)[C@@H](OC(C)=O)[C@H](OC(=O)C(C)C)[C@]1(C)O`, the inhibition at 20 µM with Human gammaherpesvirus 4 [1] is under 50%.

Consider `CC(=O)O[C@@H](CC1=CC(=O)OC1)[C@]1(C)[C@H]2CCC=C(C)[C@]2(C)[C@@H](OC(=O)c2cccnc2)[C@H](OC(=O)c2cccnc2)[C@]1(C)O`, for which the inhibition at 20 µM in the series on Human gammaherpesvirus 4 [1] is under 50%.

Take `CC1=CCC[C@H]2[C@@]1(C)[C@@H](OC(=O)c1ccccc1)[C@H](OC(=O)c1ccccc1)[C@](C)(O)[C@]2(C)/C=C/C1=CC(=O)OC1`: the “Ratio CC50/EC50” value in series [2] worked out at 2.1. Also, the inhibition at 20 µM with Human gammaherpesvirus 4 [1] is over 50%. For the same molecule, the EC50 with Human gammaherpesvirus 4 [3] was 14.3 µM. The CC50 at 48 h in series [4] was found to be 30 µM.

On to `CC1=CCC[C@H]2[C@@]1(C)[C@@H](OC(=O)c1ccccc1)[C@H](OC(=O)C(C)C)[C@](C)(O)[C@]2(C)/C=C/C1=CC(=O)OC1`, for which the “Ratio CC50/EC50” value in series [2] amounted to 5.4. Also, the inhibition at 20 µM in the series on Human gammaherpesvirus 4 [1] was over 50%. Besides, in the series on Human gammaherpesvirus 4 [3], the EC50 was 9.2 µM. For the same molecule, the CC50 at 48 h in series [4] turned out to be 49.7 µM.

In the case of `CC(=O)O[C@H]1[C@H](OC(C)=O)[C@]2(C)O[C@]3(CC[C@]2(C)[C@H]2[C@H](OC(=O)c4cccnc4)CC=C(C)[C@]12C)COC(=O)C3`, in the series on Human gammaherpesvirus 4 [1], the inhibition at 20 µM is under 50%.

With `CC1=CCC[C@H]2[C@@]1(C)[C@@H](OC(=O)c1cccnc1)[C@H](OC(=O)C(C)C)[C@](C)(O)[C@]2(C)/C=C/C1=CC(=O)OC1`, in the series with Human gammaherpesvirus 4 [1], the inhibition at 20 µM is under 50%.

Regarding `CC(=O)O[C@@H](CC1=CC(=O)OC1)[C@]1(C)[C@H]2CCC=C(C)[C@]2(C)[C@@H](OC(C)=O)[C@H](OC(C)=O)[C@]1(C)O`, the inhibition at 20 µM in the series with Human gammaherpesvirus 4 [1] was under 50%.

On to `CC(=O)O[C@H]1[C@H](OC(=O)c2ccccc2)[C@](C)(O)[C@](C)(/C=C/C2=CC(=O)OC2)[C@H]2CCC=C(C)[C@]12C`, for which the inhibition at 20 µM in the series with Human gammaherpesvirus 4 [1] is under 50%.

In the case of `CC(=O)O[C@H]1[C@H](OC(C)=O)[C@]2(C)O[C@]3(CC[C@]2(C)[C@H]2[C@H](OC(=O)c4ccccc4)CC=C(C)[C@]12C)COC(=O)C3`, in series [2], the “Ratio CC50/EC50” value amounted to 57.2. For the same molecule, the inhibition at 20 µM in the series on Human gammaherpesvirus 4 [1] is over 50%. Moreover, the 50% effective concentration (EC50) with Human gammaherpesvirus 4 [3] is 12.9 µM. The CC50 at 48 h in series [4] came to 738 µM.

As to `CC1=CCC[C@H]2[C@@]1(C)[C@@H](OC(=O)c1ccccc1)[C@H](O)[C@](C)(O)[C@]2(C)/C=C/C1=CC(=O)OC1`, in series [2], the “Ratio CC50/EC50” value turned out to be 7.5. In addition, the inhibition at 20 µM with Human gammaherpesvirus 4 [1] was over 50%. In addition, the EC50 with Human gammaherpesvirus 4 [3] stood at 9.1 µM. Besides, the CC50 at 48 h in series [4] is 68.3 µM.

Regarding `CC1=CCC[C@H]2[C@@]1(C)[C@@H](OC(=O)c1ccccc1)[C@H](O)[C@]1(C)O[C@]3(COC(=O)C3)C[C@H](OC(=O)c3ccccc3)[C@]21C`, the “Ratio CC50/EC50” value in series [2] is reported as 3.6. In addition, the inhibition at 20 µM with Human gammaherpesvirus 4 [1] was over 50%. In addition, in the series on Human gammaherpesvirus 4 [3], the 50% effective concentration (EC50) was found to be 18.3 µM. Moreover, the CC50 at 48 h in series [4] stood at 66.5 µM.

For the molecule `CC(=O)OC(C(=O)O[C@H]1[C@H](OC(=O)c2cccnc2)[C@@]2(C)C(C)=CCC[C@@H]2[C@@](C)(/C=C/C2=CC(=O)OC2)[C@@]1(C)O)C(C)C` (some centres not stated), the “Ratio CC50/EC50” value in series [2] worked out at 16.4. The inhibition at 20 µM with Human gammaherpesvirus 4 [1] was over 50%. Also, the EC50 in the series on Human gammaherpesvirus 4 [3] was 18.7 µM. In series [4], the CC50 at 48 h was 307 µM.
